pIC50: −log10 of the molar value. Entries after “also recorded” stand apart in the source; their conditions may differ.
Columns and labels:
CK1ε = target: T1, CK1ε (Homo sapiens, UniProt P49674); assay: In vitro kinase assay, CK1ε (Reaction Biology Corporation); format: biochemical; conditions: 10 μM ATP
T1 construct: Reaction Biology Corporation (contract assay)
Method: (§1) Compounds were tested in 10-dose IC50 mode with 3-fold serial dilution starting at 50 μM. […] Reactions were carried out at 10 μM ATP. Average and standard deviations of reactions carried out in triplicate are shown.
(§2) In vitro kinase assay to detect CK1 or FLT3 activity: CK1 and FLT3 assays as well as complete kinase profile of 296 kinases was performed by Reaction Biology Corporation. For FLT3 20 μM final Abltide was used, sequence: [[…]]. For CK1 (all isoforms) 20 μM CK1 tide was used, sequence: [KRRRAL[pS]VASLPGL] in a standard kinase assay with ^32P-ATP and purified kinase. Incorporation of ^32P-ATP into the peptide was measured after a filter-binding assay. In-house CK1d inhibition assays were performed using a standard homogenous time-resolved fluorescence resonance energy transfer (TR-FRET) format in 50 mM Hepes, pH 7.0, 2.5 mM MgCl2, 0.1 mg/ml bovine serum albumin, 1 mM DL-dithiothreitol, 0.01% Triton X-100 (all from Sigma-Aldrich). […] Assays were performed in the presence of 2 μL of compound at different (measured) concentrations, and reactions were stopped by adding 10 μL of 4 nM Eu-anti-p-Topo-IIa (PerkinElmer) in Lance Detection Buffer (Perkin Elmer). Upon excitation of the Eu-labeled antibody, energy is transferred to the acceptor dye resulting in the emission of detected light at 665 nm.

LKB1 = target: T2, LKB1 (Homo sapiens, UniProt Q15831); assay: In vitro kinase assay, LKB1; format: biochemical
T2 construct: Reaction Biology Corporation (inferred: panel performed there)
T2 sequence (Q15831 1-433): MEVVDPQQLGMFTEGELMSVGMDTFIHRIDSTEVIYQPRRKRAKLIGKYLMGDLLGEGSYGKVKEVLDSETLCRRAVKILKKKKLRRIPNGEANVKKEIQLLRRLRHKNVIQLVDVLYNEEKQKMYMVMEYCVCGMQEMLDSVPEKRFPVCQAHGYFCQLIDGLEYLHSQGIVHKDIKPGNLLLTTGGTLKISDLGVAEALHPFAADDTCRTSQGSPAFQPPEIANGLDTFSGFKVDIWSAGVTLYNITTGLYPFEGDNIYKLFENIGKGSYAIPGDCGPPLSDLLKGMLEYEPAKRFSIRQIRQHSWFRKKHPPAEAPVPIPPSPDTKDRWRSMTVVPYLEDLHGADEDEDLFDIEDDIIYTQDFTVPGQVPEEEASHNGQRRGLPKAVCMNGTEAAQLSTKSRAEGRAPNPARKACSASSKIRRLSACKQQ
T2 sequence (Q7RTN6 1-431 partner): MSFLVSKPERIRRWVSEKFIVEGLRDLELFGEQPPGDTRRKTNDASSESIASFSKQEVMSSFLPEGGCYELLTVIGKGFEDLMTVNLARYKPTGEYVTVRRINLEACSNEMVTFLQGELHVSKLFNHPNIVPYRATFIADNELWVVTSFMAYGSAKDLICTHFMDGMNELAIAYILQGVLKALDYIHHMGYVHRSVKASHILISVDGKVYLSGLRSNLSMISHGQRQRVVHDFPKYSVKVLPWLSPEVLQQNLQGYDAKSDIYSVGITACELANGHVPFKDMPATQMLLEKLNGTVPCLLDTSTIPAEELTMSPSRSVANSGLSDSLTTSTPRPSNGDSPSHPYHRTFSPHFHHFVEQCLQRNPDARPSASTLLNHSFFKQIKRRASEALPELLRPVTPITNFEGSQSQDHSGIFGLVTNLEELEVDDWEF
T2 sequence (Q9Y376 1-341 partner): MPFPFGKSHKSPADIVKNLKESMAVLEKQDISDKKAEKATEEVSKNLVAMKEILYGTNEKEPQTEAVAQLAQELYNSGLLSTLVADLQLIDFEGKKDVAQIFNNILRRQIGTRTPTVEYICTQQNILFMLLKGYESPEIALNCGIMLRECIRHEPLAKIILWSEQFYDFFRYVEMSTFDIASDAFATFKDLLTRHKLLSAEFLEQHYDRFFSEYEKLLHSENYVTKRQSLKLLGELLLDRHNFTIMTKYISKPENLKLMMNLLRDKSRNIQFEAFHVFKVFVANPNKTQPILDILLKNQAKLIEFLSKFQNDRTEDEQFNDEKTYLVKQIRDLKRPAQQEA
Method: as §1, §2

[1] = tested on: cerebellar granule cell progenitors (GCPs); assay: In vitro proliferation of cerebellar granule cell progenitors (3H-thymidine uptake); format: cell-based, mouse; conditions: 24 hours; result in words
Method: GCPs were incubated with DMSO, 5 μM D4476 (known CK1δ and CK1ε inhibitor), or 50 μM D4476 and processed for ^3H-thymidine incorporation after 24 hours. A representative experiment performed in triplicate is shown.

HeLa cells [2] = assay: Cell viability, ATP content (Cell-Titer Glo); format: cell-based; conditions: 24 hours, result in words
Description: Error bars represent the standard deviation of three separate experiments.

HEK-SW cells = assay: Amyloid β 1-42 production (AlphaLISA); format: cell-based; conditions: 1 μM; supernatant at 48 hours post plating; result in words
Method: HEK-SW cells, which artificially overexpress mutated APP (K670N/M671L), the so-called Swedish mutation, were cultured on D-MEM supplemented with 10% FBS. HEK-SW cells were kindly provided by laboratory of Dr. Dennis Selkoe. HEK-SW cells were plated in 96 well plates (10,000 cells/well) and at 24 hours post plating replaced media and started treatments. […] DAPT, N [(3,5-Difluorophenyl)acetyl]-L-alanyl-2-phenyl]glycine-1,1-dimethylethyl ester, is a known inhibitor of γ-secretase purchased from TOCRIS Bioscience (Ellisville, Mo., USA). Supernatant of cells were collected at 48 hours post plating and concentration of Amyloid β 1-42 (Aβ 1-42) measured by AlphaLISA method (PerkinElmer, Waltham, Mass., USA) following instructions from the company.

HeLa cells [3] = assay: PI-FACS cell cycle analysis; format: cell-based; conditions: 24 hours, result in words
Description: FIG. 11 illustrates inhibition of CK1δ and CK1ε can induce an S/G2/M phase arrest.

296 kinases = assay: Kinase profile of 296 kinases (Reaction Biology Corporation); format: biochemical; conditions: result in words
cyclin dependent kinases = assay: Kinase activity, cyclin dependent kinases; format: biochemical; conditions: result in words
Description: CNS neurogenesis requires Cdk1 activity regulated by the phosphatase Cdc25 and the tyrosine kinase Wee1[1]. Cdk1 activity decreases in normal adult neurons and is reactivated in neurological diseases such as Alzheimer's[2]. A major mechanism controlling Cdk1 activity in neurons is Wee1 degradation via the ubiquitin proteasome pathway. It was sought to identify pathways controlling neuronal Wee1 degradation using cerebellar granule cells and a reporter of Wee1 turnover, K328M-Wee1-Luciferase[4].

T1 sequence (P49674 whole entry): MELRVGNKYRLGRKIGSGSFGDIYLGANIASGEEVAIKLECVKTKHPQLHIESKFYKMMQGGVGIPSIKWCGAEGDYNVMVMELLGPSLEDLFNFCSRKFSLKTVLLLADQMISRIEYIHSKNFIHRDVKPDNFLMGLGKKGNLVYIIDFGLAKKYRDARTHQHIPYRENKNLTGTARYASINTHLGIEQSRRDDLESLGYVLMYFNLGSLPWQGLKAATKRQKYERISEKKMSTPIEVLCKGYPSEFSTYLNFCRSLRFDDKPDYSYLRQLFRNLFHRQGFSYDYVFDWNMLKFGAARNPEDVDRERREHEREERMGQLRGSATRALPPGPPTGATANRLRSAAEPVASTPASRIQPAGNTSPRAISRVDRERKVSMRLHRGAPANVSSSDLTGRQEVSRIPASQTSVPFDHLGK

In the case of c1ccc2[nH]c(CNc3nc(N4CCOCC4)nc4c3ncn4-c3ccsc3)nc2c1 [SR-653234], the pIC50 (CK1ε) was 7.00, the pIC50 (LKB1) was 7.04 and the “inhibition of GCP proliferation (3H-thymidine)” value [1] was “robust inhibition”. For the same compound, the cell viability (HeLa cells [2]) was “without affecting cell viability; also recorded: not affected”, the Aβ1-42 production (HEK-SW cells) was “inhibit Aβ1-42 production” and the cell cycle arrest (HeLa cells [3]) was “induced an S/G2/M arrest”. The “selectivity among 296 kinases” value (296 kinases) was “highly selective for casein kinase” and the “activity toward cyclin dependent kinases” value (cyclin dependent kinases) was “does not show any appreciable activity”.

In the case of O=[N+]([O-])c1cccc2[nH]c(CNc3nc(N4CCOCC4)nc4c3ncn4-c3ccsc3)nc12 [SR-1277], the “activity toward LKB1” value (LKB1; result in words) was “inactive”, the “inhibition of GCP proliferation (3H-thymidine)” value [1] was “robust inhibition” and the cell viability (HeLa cells [2]) was “not affected”. The Aβ1-42 production (HEK-SW cells) was “inhibit Aβ1-42 production” and the cell cycle arrest (HeLa cells [3]) was “induced an S/G2/M arrest”.
